Test results reported in US5783558A, “Parathormone fragments, their preparation and medicaments containing these” (Boehringer Mannheim GmbH, priority 1992, dated 1998).

Columns and labels:
UMR 106 cells = test: DNA synthesis capacity of PTH(3-X) fragments on UMR 106 cells ([3H]-thymidine incorporation); type: cell-based
Excerpt: DNA synthesis capacity on PTH-(3-X) fragments
An increased DNA synthesis capacity on UMR 106 cells was also observed with fragments, the N-terminus of which was shortened by two amino acids. An action maximum was again present when the chain length lay between 34 and 36 amino acids (cf. Tab. 6). This finding is surprising since it is known that a deletion of the amino acids +1 or +1 and +2 leads to the loss of the cAMP induction, combined with the loss of the calcium-mobilising properties of the PTH. An anabolic (mitogenic) activity of N-terminal shortened PTH fragments has hitherto not been described.

sterna organ cultures [1] = test: Mitogeneity on sterna organ cultures; type: cell-based; details: n=4
Procedure: Mitogeneity on sterna organ cultures
The mitogeneity of the new fragments was tested in organ cultures from sterna and it was ascertained that this activity was more strongly marked than in the case of the known fragments hPTH(1-34) and hPTH(1-38)(cf. Tab. 2).

rats = test: Ca retention (Ca balance) in growing rats; type: in vivo, rat; parameters: Ca retention (mg per day) average value: dose or concentration left out as unconfirmed; details: for Ca retention (mg per day) average value / Ca retention % increase: male CD rats, daily subcutaneous, 10 days; for Ca retention (mg per day) average value: equimolar doses, balance measured during last 3 days; for Ca retention in words: rats, compared with hPTH(1-n), n=34, 37, 38; for Ca retention % increase: versus control
Procedure: Determination of the action of various PTH fragments on the Ca retention in the case of rats.
The measurement of the Ca balance in growing rats is a suitable model to test in vivo the effectiveness of a systemically administered substance on the bone metabolism. In the case of the Ca balance, the Ca flows in and out of the body are measured and the Ca retention (balance) calculated therefrom. It is thereby taken into account that the bones store about 99% of the body calcium, whereas the plasma calcium level remains constant. The amount of calcium retained in the body from the nutrition can, therefore, be regarded as proportional to the growth in the bone mass.
As experimental animals for the investigations, there served male CD rats which, at the beginning of the experiment, were 10 weeks old and weighed 250-300 g. The experimental animals were kept individually in commercially-available metabolic cages. An automatic separation of faeces and urine took place in the metabolic cages. Both fractions were collected quantitatively in collection containers and could be analyzed separately from one another.
As feed there served a standard diet for rats of meal-like consistency which was pasted with aqua dist. in the ratio of 1:1. The daily provided amount of feed was so adapted to the feed requirement of the animals in the sense of a so-called "group feedings" that they were completely eaten by all animals. The daily food ration amounted to 20 g (wet feed). Aqua dist. was offerred to the animals ad libitum.
All test substances were injected daily subcutaneously in equimolar doses (corresponding to […] hPTH(1-34)×kg^-1 ×day^-1), over 10 days. Of this, the first 7 days served for the adaptation of the animals, whereas the measurement of the Ca balance took place during the last 3 days.
The Ca intake was calculated via the amount of feed taken up and the experimentally determined Ca content of the feed. For this purpose, from the feed batch of each day, an aliquot was dried to constant weight and the water content determined from the comparison of wet and dry weight. Subsequently, 2×500 mg of the dried feed was digested with a laboratory microwave apparatus in conc. acids as follows: To 500 mg of dried feed were successively pipetted 3 ml HNO3 (conc.), 1 ml HCl (conc.) and 1 ml H2 O2 (30%). After the subsidence of the spontaneous oxidation reaction (foaming up), there followed the digestion pressure-controlled in closed digestion containers of Teflon PFA. The pressure/time steps were thereby successively following passed through: 40 psi (276 kpa), 5 min; 80 psi (552 kPa), 5 min; 150 psi ([…]); 10 min. To the cooled digest were then again added 2 ml H 2 O2 (30%) in order to test the completeness of the digestion reaction (no more foaming up).The digest was made up with a 1% lanthanum nitrate solution (v/v in 0.3% HCl) ad 100 ml. For the measurement of the Ca content on a flame atom absorption spectrometer (AAS), the samples were again dilute 1:100 with 1% lanthanum nitrate solution. The Ca intake was then calculated from the taken-up amount of feed and the measured water and Ca content.
The Ca loss via the faeces was then determined analogously to the Ca intake: Determination of the water content, acidic digestion in the microwave apparatus under the same conditions and subsequent measurement of the Ca content on the AAS.
In the collection container for the urine was placed 2 ml 10% HCl in order to prevent a precipitation of urate. After the end of the experiment, the urine volume was determined by weighing and subsequently an aliquot thereof diluted with 1% lanthanum nitrate solution (v/v in 0.3% HCl) in the ratio of 1:100. The determination of the Ca content of the samples took place on the AAS.

ROS 17/2.8 cells = test: DNA synthesis capacity on ROS 17/2.8 cells ([3H]-thymidine incorporation); type: cell-based; details: for DNA synthesis E/C / [^3 H]-thymidine incorporation (cpm): hPTH(1-X) 100 nM, ROS/2.8 cells
Procedure: DNA synthesis capacity on ROS 17/2.8 cells
The DNA synthesis capacity was measured on ROS 17/2.8 cells. […] Tab. 3: DNA synthesis hPTH(1-X), 100 nM, ROS/2.8 cells

[2] = test system: membrane fractions from pigs' kidneys; test: cAMP stimulation on porcine kidney membrane; type: biochemical, pig; details: for Induction of cAMP formation in words: membrane fractions from pigs' kidneys, compared with PTH(1-34); for pMol cAMP/mg protein ± SEM: porcine kidney membrane, n=3
Procedure: (§1) In organ cultures from sterna, as well as on membrane fractions from pigs' kidneys was measured the induction of the cAMP formation by various PTH peptides. […] This is of importance since the catabolic, i.e. calcium-mobilising properties of PTH are, as is known, involved with an increase of the cAMP (Schluter et al. (1989), J. Biol. Chem. 264, 19:11087-11092; Lowik et al., (1988), Calcif Tissue Int. 43:7-18). These findings are plausible and, therefore, support the above-mentioned findings which show an increase of the anabolic properties of the peptide in the case of a chain length between 35 and 36 amino acids.

sterna organ cultures [3] = test: cAMP stimulation on sterna organ cultures; type: cell-based; details: for pMol cAMP: 100 nm inductor, n=4; for Induction of cAMP formation in words: compared with PTH(1-34)
Procedure: as §1

Row | Substance | DNA synthesis E/C (UMR 106 cells; PTH(3-X) 100 nM) | [^3 H]-thymidine incorporation (cpm) (UMR 106 cells; PTH(3-X) 100 nM) | DNA synthesis E/C (UMR 106 cells; PTH(3-X) 300 nM) | [^3 H]-thymidine incorporation (UMR 106 cells; PTH(3-X) 300 nM) | Mitogeneity E/C +/- SEM (sterna organ cultures [1]) | Ca retention (mg per day) average value (rats) | Ca retention in words (rats) | Ca retention % increase (rats) | DNA synthesis capacity in words (ROS 17/2.8 cells; ROS 17/2.8 cells, compared with other fragments) | DNA synthesis E/C (ROS 17/2.8 cells) | [^3 H]-thymidine incorporation (cpm) (ROS 17/2.8 cells) | Induction of cAMP formation in words [2] | pMol cAMP/mg protein ± SEM [2] | pMol cAMP (sterna organ cultures [3]) | Induction of cAMP formation in words (sterna organ cultures [3])
1 | PTH (3-34): PTH fragment, N-terminus shortened by two amino acids, positions 3-34 (SEIQLMHNLGKHLNSMERVEWLRKKLQDVHNF; Parathyroid hormone; UniProt P01270 34-65, looked up, fragment) | 1.9 ± 0.12 | 1,748 ± 150 cpm | 3.6 ± 0.31 | 3,516 ± 297 |  |  |  |  |  |  |  |  |  |  | 
2 | PTH (3-37): PTH fragment, N-terminus shortened by two amino acids, positions 3-37 (SEIQLMHNLGKHLNSMERVEWLRKKLQDVHNFVAL; Parathyroid hormone; UniProt P01270 34-68, looked up, fragment) | 2.3 ± 0.06 | 2,161 ± 74 cpm | 4.1 ± 0.28 | 3,962 ± 268 |  |  |  |  |  |  |  |  |  |  | 
3 | PTH (3-38): PTH fragment, N-terminus shortened by two amino acids, positions 3-38 (SEIQLMHNLGKHLNSMERVEWLRKKLQDVHNFVALG; Parathyroid hormone; UniProt P01270 34-69, looked up, fragment) | 2.1 ± 0.13 | 1,905 ± 159 cpm | 3.8 ± 0.43 | 3,701 ± 414 |  |  |  |  |  |  |  |  |  |  | 
4 | Ser-Val-Ser-Glu-Ile-Gln-Leu-Met-His-Asn-Leu-Gly-Lys-His-Leu-Asn-Ser-Met-Glu-Arg-Val-Glu-Trp-Leu-Arg-Lys-Lys-Leu-Gln-Asp-Val-His-Asn-Phe-Val (SVSEIQLMHNLGKHLNSMERVEWLRKKLQDVHNFV) [hPTH(1-35)] |  |  |  |  | 3.13 +/- 0.57 | 108.6 mg per day | higher Ca retention | 119% | more strongly increased | 4.1 ± 0.43 | 2,686 ± 282 cpm | decreased | 82.4 ± 0.4 pMol cAMP/mg protein | 18.2 pMol | decreased
5 | Ser-Val-Ser-Glu-Ile-Gln-Leu-Met-His-Asn-Leu-Gly-Lys-His-Leu-Asn-Ser-Met-Glu-Arg-Val-Glu-Trp-Leu-Arg-Lys-Lys-Leu-Gln-Asp-Val-His-Asn-Phe-Val-Ala (SVSEIQLMHNLGKHLNSMERVEWLRKKLQDVHNFVA) [hPTH(1-36)] |  |  |  |  | 3.37 +/- 0.58 | 110.5 mg per day | higher Ca retention | 123% |  | 3.2 ± 0.37 | 2,136 ± 246 cpm | decreased | 44.6 ± 1.8 pMol cAMP/mg protein | 17.6 pMol | decreased
6 | hPTH(1-37): known human parathyroid hormone fragment, amino acids 1-37 (WO 91/06564) (SVSEIQLMHNLGKHLNSMERVEWLRKKLQDVHNFVAL; Parathyroid hormone; UniProt P01270 32-68, looked up, fragment) [reference compound] |  |  |  |  |  | 96.0 mg per day |  | 94% |  | 3.1 ± 0.38 | 2,021 ± 251 cpm |  |  |  | 
7 | hPTH(1-38): known human parathyroid hormone fragment, amino acids 1-38, state of the art (SVSEIQLMHNLGKHLNSMERVEWLRKKLQDVHNFVALG; Parathyroid hormone; UniProt P01270 32-69, looked up, fragment) [reference compound] |  |  |  |  | 2.96 +/- 0.30 | 91.8 mg per day |  | 85% |  |  |  |  |  |  | 
